{"source": "ChEMBL document CHEMBL2074091", "about": "“Transport of methotrexate, methotrexate polyglutamates, and 17beta-estradiol 17-(beta-D-glucuronide) by ABCG2: effects of acquired mutations at R482 on methotrexate transport” (Cancer Res, 2003)", "type_in_all_cases": "functional, cell membranes", "key": {"[1]": {"target": "T1, ABCG2 (R482) (Homo sapiens, UniProt Q9UNQ0)", "T1 sequence (Q9UNQ0 whole entry)": "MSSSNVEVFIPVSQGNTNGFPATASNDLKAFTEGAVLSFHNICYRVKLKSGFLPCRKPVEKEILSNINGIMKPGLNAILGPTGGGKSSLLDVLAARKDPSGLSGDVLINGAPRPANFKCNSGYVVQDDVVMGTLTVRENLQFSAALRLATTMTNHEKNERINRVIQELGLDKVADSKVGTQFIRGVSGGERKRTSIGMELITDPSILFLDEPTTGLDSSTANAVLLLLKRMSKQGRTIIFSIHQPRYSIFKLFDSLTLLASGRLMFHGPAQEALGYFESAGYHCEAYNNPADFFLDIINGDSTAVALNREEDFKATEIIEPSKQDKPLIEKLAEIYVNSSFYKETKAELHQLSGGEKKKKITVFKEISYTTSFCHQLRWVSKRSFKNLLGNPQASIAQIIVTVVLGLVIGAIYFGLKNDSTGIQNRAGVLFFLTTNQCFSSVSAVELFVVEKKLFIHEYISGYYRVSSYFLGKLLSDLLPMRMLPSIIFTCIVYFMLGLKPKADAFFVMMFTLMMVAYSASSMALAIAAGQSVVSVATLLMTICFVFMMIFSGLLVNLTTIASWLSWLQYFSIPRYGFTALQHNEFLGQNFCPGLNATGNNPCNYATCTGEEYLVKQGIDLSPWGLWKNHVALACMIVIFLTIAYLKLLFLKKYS", "experiment": "(§1) TP_TRANSPORTER: uptake (vesicle) in membrane vesicle from ABCG2-R482-expressing HEK293 cells", "settings": "membrane vesicles from ABCG2-R482-expressing HEK293 cells"}, "[2]": {"target": "T2, Broad substrate specificity ATP-binding cassette transporter ABCG2 (Homo sapiens, UniProt Q9UNQ0)", "T2 sequence (Q9UNQ0 whole entry)": "T1 sequence (Q9UNQ0 whole entry)", "experiment": "as §1", "settings": "hek293"}, "[3]": {"target": "ATP-binding cassette sub-family C member 2 (Homo sapiens, UniProt Q92887)", "sequence (Q92887 whole entry)": "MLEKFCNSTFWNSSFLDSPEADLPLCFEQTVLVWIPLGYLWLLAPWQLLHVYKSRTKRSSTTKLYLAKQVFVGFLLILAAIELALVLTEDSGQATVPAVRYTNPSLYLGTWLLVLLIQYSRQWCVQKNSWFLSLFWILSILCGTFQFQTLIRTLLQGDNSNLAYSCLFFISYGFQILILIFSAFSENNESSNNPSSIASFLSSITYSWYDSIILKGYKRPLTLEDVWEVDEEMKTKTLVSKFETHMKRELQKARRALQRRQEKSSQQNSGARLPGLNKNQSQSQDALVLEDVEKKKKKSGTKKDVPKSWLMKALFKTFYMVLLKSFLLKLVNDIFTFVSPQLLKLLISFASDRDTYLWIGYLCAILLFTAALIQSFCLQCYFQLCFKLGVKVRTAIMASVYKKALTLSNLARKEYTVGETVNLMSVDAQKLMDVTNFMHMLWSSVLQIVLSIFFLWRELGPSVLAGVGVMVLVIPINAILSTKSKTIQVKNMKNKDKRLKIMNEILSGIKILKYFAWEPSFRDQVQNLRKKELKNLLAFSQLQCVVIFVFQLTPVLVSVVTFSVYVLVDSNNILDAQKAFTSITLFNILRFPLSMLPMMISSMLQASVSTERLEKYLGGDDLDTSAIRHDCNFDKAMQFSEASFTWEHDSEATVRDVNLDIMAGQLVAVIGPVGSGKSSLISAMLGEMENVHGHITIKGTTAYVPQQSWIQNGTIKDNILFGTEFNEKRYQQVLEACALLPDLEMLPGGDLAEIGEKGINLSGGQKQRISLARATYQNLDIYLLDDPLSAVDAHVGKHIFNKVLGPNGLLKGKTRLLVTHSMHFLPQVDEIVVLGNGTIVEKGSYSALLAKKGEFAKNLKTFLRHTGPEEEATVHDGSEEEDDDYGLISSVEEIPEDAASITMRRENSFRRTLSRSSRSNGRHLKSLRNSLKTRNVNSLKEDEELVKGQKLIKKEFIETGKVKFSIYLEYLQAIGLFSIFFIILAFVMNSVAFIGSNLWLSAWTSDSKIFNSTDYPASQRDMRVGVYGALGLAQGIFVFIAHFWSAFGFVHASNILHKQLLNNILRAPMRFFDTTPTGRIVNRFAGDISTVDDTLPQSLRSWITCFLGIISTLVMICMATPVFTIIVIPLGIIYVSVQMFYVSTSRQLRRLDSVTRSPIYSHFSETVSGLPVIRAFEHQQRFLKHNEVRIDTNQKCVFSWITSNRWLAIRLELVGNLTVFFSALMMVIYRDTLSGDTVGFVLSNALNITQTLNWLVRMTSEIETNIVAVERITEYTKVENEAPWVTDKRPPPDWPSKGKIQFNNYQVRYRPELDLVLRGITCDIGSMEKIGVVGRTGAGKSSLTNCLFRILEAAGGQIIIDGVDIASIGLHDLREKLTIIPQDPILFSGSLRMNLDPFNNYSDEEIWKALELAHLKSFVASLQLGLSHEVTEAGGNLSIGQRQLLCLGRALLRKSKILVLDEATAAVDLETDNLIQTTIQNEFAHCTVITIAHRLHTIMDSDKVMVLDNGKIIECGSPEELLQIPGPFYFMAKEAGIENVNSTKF", "experiment": "TP_TRANSPORTER: uptake (vesicle) in membrane vesicle from MRP2-expressing HEK293 cells"}, "[4]": {"target": "Multidrug resistance associated protein (Homo sapiens) (UniProt Q96QA9)", "sequence (Q96QA9 as listed by the source)": "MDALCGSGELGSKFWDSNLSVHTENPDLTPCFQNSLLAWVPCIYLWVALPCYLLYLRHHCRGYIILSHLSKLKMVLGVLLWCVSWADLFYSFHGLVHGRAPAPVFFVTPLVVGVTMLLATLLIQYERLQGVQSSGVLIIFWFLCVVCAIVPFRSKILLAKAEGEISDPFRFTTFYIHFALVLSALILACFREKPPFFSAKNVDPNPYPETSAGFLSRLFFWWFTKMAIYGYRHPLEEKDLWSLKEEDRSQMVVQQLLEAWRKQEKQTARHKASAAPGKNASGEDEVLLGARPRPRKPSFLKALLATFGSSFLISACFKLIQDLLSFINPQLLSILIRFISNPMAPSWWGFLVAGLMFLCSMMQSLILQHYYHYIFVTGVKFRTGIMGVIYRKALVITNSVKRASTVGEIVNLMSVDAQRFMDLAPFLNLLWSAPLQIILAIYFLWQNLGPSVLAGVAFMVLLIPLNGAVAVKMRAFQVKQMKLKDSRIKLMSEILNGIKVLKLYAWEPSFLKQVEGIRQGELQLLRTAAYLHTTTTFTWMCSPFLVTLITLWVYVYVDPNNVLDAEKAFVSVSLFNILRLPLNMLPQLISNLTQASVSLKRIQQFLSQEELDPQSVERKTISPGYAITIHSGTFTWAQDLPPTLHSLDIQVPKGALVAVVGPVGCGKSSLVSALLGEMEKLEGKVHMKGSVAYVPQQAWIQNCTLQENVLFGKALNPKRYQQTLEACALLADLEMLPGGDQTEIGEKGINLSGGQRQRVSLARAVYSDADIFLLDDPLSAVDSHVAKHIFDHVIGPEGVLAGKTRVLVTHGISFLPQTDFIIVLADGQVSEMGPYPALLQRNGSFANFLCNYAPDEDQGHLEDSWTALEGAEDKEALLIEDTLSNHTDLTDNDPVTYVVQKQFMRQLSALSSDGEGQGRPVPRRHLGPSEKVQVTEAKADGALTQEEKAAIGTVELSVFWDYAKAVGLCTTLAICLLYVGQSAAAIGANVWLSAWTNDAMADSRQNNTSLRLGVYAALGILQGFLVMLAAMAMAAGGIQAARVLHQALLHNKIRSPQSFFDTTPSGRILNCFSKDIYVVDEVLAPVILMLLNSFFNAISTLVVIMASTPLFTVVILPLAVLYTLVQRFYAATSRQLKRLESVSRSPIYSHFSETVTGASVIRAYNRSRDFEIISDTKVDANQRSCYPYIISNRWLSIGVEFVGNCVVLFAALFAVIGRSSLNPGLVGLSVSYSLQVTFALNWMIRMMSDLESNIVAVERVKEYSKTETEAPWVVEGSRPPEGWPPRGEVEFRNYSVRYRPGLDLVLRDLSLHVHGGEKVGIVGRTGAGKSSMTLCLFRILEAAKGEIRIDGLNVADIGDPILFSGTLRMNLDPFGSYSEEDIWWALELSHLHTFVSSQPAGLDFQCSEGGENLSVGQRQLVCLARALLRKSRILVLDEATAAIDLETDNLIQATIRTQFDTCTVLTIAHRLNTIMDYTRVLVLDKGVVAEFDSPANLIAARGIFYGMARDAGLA", "experiment": "TP_TRANSPORTER: uptake (vesicle) in membrane vesicles from MRP3-expressing HEK293 cells"}}}
{"smiles": "CN(Cc1cnc2nc(N)nc(N)c2n1)c1ccc(C(=O)N[C@@H](CCC(=O)O)C(=O)O)cc1", "note": "[METHOTREXATE]", "values": [{"measurement": "Km", "setting": "[1]", "value": 1300, "unit": "µM"}]}
{"smiles": "Nc1nc2ncc(CNc3ccc(C(=O)N[C@@H](CCC(=O)O)C(=O)O)cc3)nc2c(=O)[nH]1", "note": "[FOLIC ACID]", "values": [{"measurement": "Activity", "setting": "[2]", "value": "substrate []"}]}
{"smiles": "Nc1nc2c(c(=O)[nH]1)N(C=O)C(CNc1ccc(C(=O)N[C@@H](CCC(=O)O)C(=O)O)cc1)CN2", "note": "(some centres not stated) [LEUCOVORIN]", "values": [{"measurement": "Activity", "setting": "[3]", "value": "substrate []"}]}
{"smiles": "C[C@]12CC[C@@H]3c4ccc(O)cc4CC[C@H]3[C@@H]1CC[C@@H]2O[C@@H]1O[C@H](C(=O)O)[C@@H](O)[C@H](O)[C@H]1O", "note": "[ESTRADIOL 17B GLUCURONIDE]", "values": [{"measurement": "Activity", "setting": "[2]", "value": "substrate []"}]}
{"smiles": "Nc1nc(=O)c2c([nH]1)NCC(CNc1ccc(C(=O)N[C@@H](CCC(=O)O)C(=O)O)cc1)N2C=O", "note": "(some centres not stated)", "values": [{"measurement": "Activity", "setting": "[4]", "value": "substrate []"}]}
{"smiles": "CN(Cc1cnc2nc(N)nc(N)c2n1)c1ccc(C(=O)N[C@@H](CCC(=O)N[C@@H](CCC(=O)N[C@@H](CCC(=O)O)C(=O)O)C(=O)O)C(=O)O)cc1", "values": [{"measurement": "Activity", "setting": "[2]", "value": "substrate []"}]}
{"smiles": "CN(Cc1cnc2nc(N)nc(N)c2n1)c1ccc(C(=O)N[C@@H](CCC(=O)N[C@@H](CCC(=O)N[C@@H](CCC(=O)N[C@@H](CCC(=O)O)C(=O)O)C(=O)O)C(=O)O)C(=O)O)cc1", "values": [{"measurement": "Activity", "setting": "[2]", "value": "substrate []"}]}
